Test results as given in patent US20050175567A1, “Hair care compositions containing phenolic styling agents” (priority 2002, published 2005).

Assay: Curl dropout of treated hair curls in high humidity chamber
Conditions: 1% by weight solution in water; curls soaked 1 hour, rinsed, dried 30 minutes; 90% RH, 30° C., fan agitation, 1 minute
Description: Three solutions were formulated each containing 1% by weight of either 2,5 dihydroxybenzoic acid, 3,4 dihydroxybenzoic acid or 3,5 dihydroxybenzoic acid. Hair curls were made up using perming rods and 30 cm length hair.
The curls were placed in the solution for 1 hour, rinsed thoroughly with distilled water and dried for 30 minutes. The hair was removed from the curling rod and the length of the curl measured.
The hair was hung in high humidity environmental chamber (90% RH, 30° C.) with fan agitation for 1 minute and measured again.

Row | Compound | Curl dropout %
1 | O=C(O)c1cc(O)ccc1O [2,5 dihydroxybenzoic acid] | 17.1%
2 | O=C(O)c1ccc(O)c(O)c1 [3,4 dihydroxybenzoic acid] | 29%
3 | O=C(O)c1cc(O)cc(O)c1 [3,5 dihydroxybenzoic acid] | 26%
